These results are taken from patent US8101605B2, “SHIP1 modulators and methods related thereto” (Aquinox Pharmaceuticals Inc., priority 2009, dated 2012).

The test concerns the target T1, His-hSHIP1 enzyme (Homo sapiens, UniProt Q92835).
T1 sequence (Q92835 1-1189): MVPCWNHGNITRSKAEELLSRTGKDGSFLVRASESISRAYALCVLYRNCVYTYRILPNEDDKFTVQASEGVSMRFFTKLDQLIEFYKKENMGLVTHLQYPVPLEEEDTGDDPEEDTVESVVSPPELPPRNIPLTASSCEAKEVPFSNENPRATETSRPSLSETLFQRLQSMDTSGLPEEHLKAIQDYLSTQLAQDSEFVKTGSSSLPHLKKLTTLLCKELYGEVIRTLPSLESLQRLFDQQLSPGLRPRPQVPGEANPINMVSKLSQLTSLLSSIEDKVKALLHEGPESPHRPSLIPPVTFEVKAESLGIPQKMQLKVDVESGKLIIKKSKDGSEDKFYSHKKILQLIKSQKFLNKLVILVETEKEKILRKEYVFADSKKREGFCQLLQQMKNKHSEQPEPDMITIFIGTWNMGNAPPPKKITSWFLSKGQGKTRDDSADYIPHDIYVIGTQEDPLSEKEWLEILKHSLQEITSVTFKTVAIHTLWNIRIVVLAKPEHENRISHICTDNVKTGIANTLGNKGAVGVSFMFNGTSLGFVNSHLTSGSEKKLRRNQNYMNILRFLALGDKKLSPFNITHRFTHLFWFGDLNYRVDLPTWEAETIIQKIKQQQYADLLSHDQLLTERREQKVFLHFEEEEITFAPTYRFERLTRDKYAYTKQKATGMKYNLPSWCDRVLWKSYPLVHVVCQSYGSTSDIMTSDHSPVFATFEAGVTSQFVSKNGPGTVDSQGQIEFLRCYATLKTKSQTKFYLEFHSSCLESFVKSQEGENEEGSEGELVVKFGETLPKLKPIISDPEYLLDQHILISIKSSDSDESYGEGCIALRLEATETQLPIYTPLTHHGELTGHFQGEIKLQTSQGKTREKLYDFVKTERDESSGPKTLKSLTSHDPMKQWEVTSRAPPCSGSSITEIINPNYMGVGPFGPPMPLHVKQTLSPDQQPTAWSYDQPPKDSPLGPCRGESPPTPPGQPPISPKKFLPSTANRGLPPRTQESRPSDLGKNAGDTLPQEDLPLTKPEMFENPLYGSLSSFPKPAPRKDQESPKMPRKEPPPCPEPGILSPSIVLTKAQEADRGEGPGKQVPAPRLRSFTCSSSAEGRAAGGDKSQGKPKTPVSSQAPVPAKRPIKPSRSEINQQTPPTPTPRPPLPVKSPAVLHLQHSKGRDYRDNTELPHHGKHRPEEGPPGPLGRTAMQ
Kind of test: His-hSHIP1 phosphatase activity assay (IP4 substrate, Biomol Green). Type of test: biochemical. The conditions noted are these: percentage increase relative to background; concentrations ≦300 μM. On the procedure: Test compounds were dissolved in 95% ethanol to form stock solutions. Before screening, the stock solutions were diluted with Phosphatase Assay Buffer (20 mM Tris-HCL, 10 mM MgCl2 pH 7.5, 0.02% Tween 20) to form working assay solutions that contained 10% ethanol. The assay was carried out on 96-well microtiter plates using a modified procedure of that reported by Ong et al., Blood 110, 1942-1949, 2007 and Yang et al., Org Lett 7, 1073-1076, 2005, both of which references are incorporated herein by reference in their entirety.
Each reaction contained 5 μL of His-hSHIP1 enzyme (15-20 ng), 10 μL of the substrate, 1,3,4,5-inositol tetrakisphosphate (IP4; 50 μM final), 5 μL of Phosphatase Assay Buffer, and 5 μL of test compound at various concentrations in 10% ethanol (0-300 μM final). Control blanks were also prepared by replacing His-hSHIP1 enzyme, IP4, or test compounds with Phosphatase Assay Buffer. After adding the reaction components in a 96-well microtiter plate on ice, the reaction was mixed by briefly shaking the plate vigorously. The reaction was then incubated at 37° C. for 15 min with gentle shaking followed by addition of 100 μL of Biomol Green Reagent (BIOMOL, PA, USA) to terminate the reaction. The free phosphate released from IP4 by His-hSHIP1 bound to the Biomol Green Reagent, turning the solution green in colour. After incubating the mixture for 20 min at room temperature for colour development, the absorbance was read with a SpectraMax Plus 96-well plate reader (Molecular Devices, Sunnyvale, Calif., USA) at a wavelength of 650 nm.
Percent (%) activation in Table 2 is expressed as a percentage increase relative to background. Scoring is expressed as follows: + (<50%); ++ (≧50% but <65%); +++ (≧65%).
Consider `COc1cc(C)c2c(c1)OC[C@@H]1[C@@]3(C)CCCC(C)(C)[C@@H]3CC[C@@]21C` [Compound No. 5, (1R,10R,11S,16S)-5-methoxy-1,3,11,15,15-pentamethyl-8-oxatetracyclo[8.8.0.0^2,7.0^11,16]octadeca-2,4,6-triene], for which the “Scoring: percent (%) activation of His-hSHIP1 enzyme” value (“Scoring: percent (%) activation” for short) is reported as “++ (≧50% but <65%)”.

Consider `COc1cc(C)cc2c1[C@]1(C)CC[C@H]3C(C)(C)CCC[C@]3(C)[C@H]1CS2` [Compound No. 14, (1R,10R,11S,16S)-3-methoxy-1,5,11,15,15-pentamethyl-8-thiatetracyclo[8.8.0.0^2,7.0^11,16]octadeca-2,4,6-triene], for which the “Scoring: percent (%) activation” value is reported as “+ (<50%)”. Consider `Cc1cc(O)c2c(c1)SC[C@@H]1[C@@]3(C)CCCC(C)(C)[C@@H]3CC[C@@]21C` [Compound No. 15, (1R,10R,11S,16S)-1,5,11,15,15-pentamethyl-8-thiatetracyclo[8.8.0.0^2,7.0^11,16]octadeca-2,4,6-trien-3-ol], for which the “Scoring: percent (%) activation” value is on record as “+++ (≧65%)”. For `Cc1cc(O)c2c(c1)S(=O)(=O)C[C@@H]1[C@@]3(C)CCCC(C)(C)[C@@H]3CC[C@@]21C` [Compound No. 16, (1R,10R,11S,16S)-3-hydroxy-1,5,11,15,15-pentamethyl-8-thiatetracyclo[8.8.0.0^2,7.0^11,16]octadeca-2,4,6-triene-8,8-dione], the “Scoring: percent (%) activation” value is “+++ (≧65%)”. For `COc1cc(OC)c2c(c1)S(=O)(=O)C[C@@H]1[C@@]3(C)CCCC(C)(C)[C@@H]3CC[C@@]21C` [Compound No. 23, (1R,10R,11S,16S)-3,5-dimethoxy-1,11,15,15-tetramethyl-8-thiatetracyclo[8.8.0.0^2,7.0^11,16]octadeca-2,4,6-triene-8,8-dione] the value was “+++ (≧65%)”. For `COc1cc(O)cc2c1[C@]1(C)CC[C@H]3C(C)(C)CCC[C@]3(C)[C@H]1CS2` [Compound No. 25, (1R,10R,11S,16S)-3-methoxy-1,11,15,15-tetramethyl-8-thiatetracyclo[8.8.0.0^2,7.0^11,16]octadeca-2,4,6-trien-5-ol] the value was “++ (≧50% but <65%)”; for `CC1(C)CCC[C@]2(C)[C@H]3CSc4cc(O)cc(O)c4[C@]3(C)CC[C@@H]12` [Compound No. 26, (1R,10R,11S,16S)-1,11,15,15-tetramethyl-8-thiatetracyclo[8.8.0.0^2,7.0^11,16]octadeca-2,4,6-triene-3,5-diol], “+ (<50%)”. In the case of `CC1(C)CCC[C@]2(C)[C@H]3C[S+]([O-])c4cc(O)cc(O)c4[C@]3(C)CC[C@@H]12` (stereo partly drawn) [Compound No. 27, (1R,10R,11S,16S)-3,5-dihydroxy-1,11,15,15-tetramethyl-8-thiatetracyclo[8.8.0.0^2,7.0^11,16]octadeca-2,4,6-trien-8-one] it was “++ (≧50% but <65%)”; in that of `COc1cc(O)c2c(c1)SC[C@@H]1[C@@]3(C)CCCC(C)(C)[C@@H]3CC[C@@]21C` [Compound No. 29, (1R,10R,11S,16S)-5-methoxy-1,11,15,15-tetramethyl-8-thiatetracyclo[8.8.0.0^2,7.0^11,16]octadeca-2,4,6-trien-3-ol], “++ (≧50% but <65%)”; in that of `COc1cc(O)c2c(c1)OC[C@@H]1[C@@]3(C)CCCC(C)(C)[C@@H]3CC[C@@]21C` [Compound No. 39, (1R,10R,11S,16S)-5-methoxy-1,11,15,15-tetramethyl-8-oxatetracyclo[8.8.0.0^2,7.0^11,16]octadeca-2,4,6-trien-3-ol], “++ (≧50% but <65%)”. `COc1cc(O)c2c(c1)[C@]1(C)CC[C@H]3C(C)(C)CCC[C@]3(C)[C@H]1CO2` [Compound No. 44, (1R,10R,11S,16S)-4-methoxy-1,11,15,15-tetramethyl-8-oxatetracyclo[8.8.0.0^2,7.0^11,16]octadeca-2,4,6-trien-6-ol]: the “Scoring: percent (%) activation” value is recorded as “++ (≧50% but <65%)”.

With `CC1(C)CCC[C@]2(C)[C@H]3CS(=O)(=O)c4cc(O)cc(C(=O)O)c4[C@]3(C)CC[C@@H]12` [compound 65, (1R,10R,11S,16S)-5-hydroxy-1,11,15,15-tetramethyl-8,8-dioxo-8λ^6-thiatetracyclo[8.8.0.0^2,7.0^11,16]octadeca-2,4,6-triene-3-carboxylic acid], the “Scoring: percent (%) activation” value was “++ (≧50% but <65%)”.

Turning to `CNC(=O)c1cc(O)cc2c1[C@]1(C)CC[C@H]3C(C)(C)CCC[C@]3(C)[C@H]1CS2(=O)=O` [compound 66, (1R,10R,11S,16S)-5-hydroxy-N,1,11,15,15-pentamethyl-8,8-dioxo-8λ^6-thiatetracyclo[8.8.0.0^2,7.0^11,16]octadeca-2,4,6-triene-3-carboxamide], the “Scoring: percent (%) activation” value was “+ (<50%)”. For `CNC(=O)c1cc2c(cc1O)S(=O)(=O)C[C@@H]1[C@@]3(C)CCCC(C)(C)[C@@H]3CC[C@@]21C` [compound 73, (1R,10R,11S,16S)-5-hydroxy-N,1,11,15,15-pentamethyl-8,8-dioxo-8λ^6-thiatetracyclo[8.8.0.0^2,7.0^11,16]octadeca-2,4,6-triene-4-carboxamide] the value was “+ (<50%)”. In the case of `CNC(=O)c1cc(O)cc2c1[C@]1(C)CC[C@H]3C(C)(C)CCC[C@]3(C)[C@H]1CS2` [compound 76, (1R,10R,11S,16S)-5-hydroxy-N,1,11,15,15-pentamethyl-8-thiatetracyclo-[8.8.0.0^2,7.0^11,16]octadeca-2,4,6-triene-3-carboxamide] it was “+ (<50%)”.

`CC1(C)CCC[C@]2(C)[C@H]3CS(=O)(=O)c4cc(O)cc(C#N)c4[C@]3(C)CC[C@@H]12` [compound 79, (1R,10R,11S,16S)-5-hydroxy-1,11,15,15-tetramethyl-8,8-dioxo-8λ^6-thiatetracyclo[8.8.0.0^2,7.0^11,16]octadeca-2,4,6-triene-3-carbonitrile]: the “Scoring: percent (%) activation” value is reported as “+ (<50%)”. For `COc1cc(C(=O)O)cc2c1[C@]1(C)CC[C@H]3C(C)(C)CCC[C@]3(C)[C@H]1CS2(=O)=O` [compound 80, (1R,10R,11S,16S)-3-methoxy-1,11,15,15-tetramethyl-8,8-dioxo-8λ^6-thiatetracyclo[8.8.0.0^2,7.0^11,16]octadeca-2,4,6-triene-5-carboxylic acid] the value was “+ (<50%)”. For `COC(=O)c1cc(C(=O)O)cc2c1[C@]1(C)CC[C@H]3C(C)(C)CCC[C@]3(C)[C@H]1CS2(=O)=O` [compound 84, (1R,10R,11S,16S)-3-(methoxycarbonyl)-1,11,15,15-tetramethyl-8,8-dioxo-8λ^6-thiatetracyclo[8.8.0.0^2,7.0^11,16]octadeca-2,4,6-triene-5-carboxylic acid] the value was “+ (<50%)”.
